# Target: T1, CDK2 (Homo sapiens, UniProt P24941)
# T1 construct: endogenous in cells; host or cells: OVCAR3 cells
# Experiment: Phospho-RB measurement in OVCAR3 cells (HTRF phospho-RB cellular kit)
# Type: cell-based
# Details: inhibition of RB phosphorylation at S807/811 (HTRF, TR-FRET ratio 665/620), 24 h compound treatment, 0.3 to 10,000 nM
# Method: Biological Example 1: Phospho-RB Measurement in OVCAR3 Cells
# The ability of compounds of Formula (I) to inhibit CDK2 was determined in OVCAR3 cells by measuring inhibition of phosphorylation of RB protein at S780 and S807/811. Phosphorylation of RB protein at S807/811 were measured using HTRF phospho-RB cellular kits (Cat #64RBS807PEG) from Cisbio.
# On Day 1, OVCAR3 cells were seeded into 96-well tissue-culture treated plates at 20,000 cells/well in 200 μL and incubated overnight at 37° C. in CO2 atmosphere. On Day 2, the cells were treated with test compounds at concentrations from 0.3 to 10,000 nM using HP D300 digital dispenser. Twenty-four hours after compound treatment, cell culture media was removed by flicking the plate and tapping the plate against clean paper towel. Immediately 30 μL 1× lysis buffer was supplemented from the kit and the plate was incubated at room temperature on shaker for 30 min. After homogenization by pipetting up and down, 8 μL cell lysate from 96-well cell culture plate was transferred to 384-well small volume white detection plate. 2 μL premixed detection solution was added and the plate was covered with sealer. To prepare the detection solution, d2 conjugated-phospho-RB antibody and Eu-cryptate conjugated phosphor-RB antibody were diluted into detection buffer following manufacturer's instruction.
# Detection plates were incubated for 4 h at room temperature and read on ClarioStar (BMG Labtech) in TR-FRET mode ([…]). The TR-FRET ratio (665 nM/620 nM) was plotted against the compound concentration and normalized to DMSO controls. Half maximal inhibition concentration (IC50) values are calculated with a four-parameter logistic fit using GraphPad Prism (version 8; La Jolla, CA).
row,IC50,Compound
1,3690 nM,"CC(C)(C)c1nc(-c2cccc(NS(=O)(=O)N3Cc4ccccc4C3c3ccccc3)c2F)c(-c2ccnc(NC3CC4(C3)CS(=O)(=O)C4)n2)s1 (stereo not shown) [Example 208, N-(3-(2-(tert-butyl)-5-(2-((2,2-dioxido-2-thiaspiro[3.3]heptan-6-yl)amino)-pyrimidin-4-yl)thiazol-4-yl)-2-fluoro-phenyl)-1-phenylisoindoline-2-sulfonamide]"
2,517 nM,"CC(C)(C)c1nc(-c2cccc(NS(=O)(=O)N3Cc4cccc(-c5cccc(C#N)c5)c4C3)c2F)c(-c2ccnc(NC3CCN(S(C)(=O)=O)CC3)n2)s1 [Example 227, N-(3-(2-(tert-butyl)-5-(2-((1-(methylsulfonyl)-piperidin-4-yl)amino)-pyrimidin-4-yl)thiazol-4-yl)-2-fluoro-phenyl)-4-(3-cyanophenyl)-isoindoline-2-sulfonamide]"
3,70.6 nM,"CS(=O)(=O)CC12CC(Nc3nccc(-c4sc(C56CC(C5)C6)nc4-c4cccc(NS(=O)(=O)N5CCc6ccc(Cl)cc65)c4F)n3)(C1)C2 [Example 269, N-(3-(2-(bicyclo [1.1.1]pentan-1-yl)-5-(2-((3-((methylsulfonyl)methyl)bicyclo-[1.1.1]pentan-1-yl)amino)pyrimidin-4-yl)thiazol-4-yl)-2-fluorophenyl)-6-chloroindoline-1-sulfonamide]"
4,162 nM,"CN1CCN(S(=O)(=O)N2CCC(Nc3nccc(-c4sc(C(C)(C)C)nc4-c4cccc(NS(=O)(=O)N5Cc6ccncc6C5)c4F)n3)CC2)CC1 [Example 128, N-(3-(2-(tert-butyl)-5-(2-((1-((4-methylpiperazin-1-yl)sulfonyl)piperidin-4.yl)-amino)pyrimidin~4-yl)thiazol-4-yl)-2-fluorophenyl)-1,3-dihydro-2H-pyrrolo[3,4-c]-pyridine-2-sulfonamide]"
5,527 nM,"CC(C)Oc1cccc2c1CN(S(=O)(=O)Nc1cccc(-c3nc(C(C)(C)C)sc3-c3ccnc(NC4CC5(C4)CS(=O)(=O)C5)n3)c1F)C2 [Example 226, N-(3-(2-(tert-butyl)-5-(2-((2,2-dioxido-2-thiaspiro[3.3]heptan-6-yl)amino)-pyrimidin-4-yl)thiazol-4-yl)~2~fluoro-phenyl)-4-isopropoxyiso-indoline-2-sulfonamide]"
6,228 nM,"O=S1(=O)CC2(CC(Nc3nccc(-c4sc(C56CC(C5)C6)nc4-c4cccc(NS(=O)(=O)N5CCCc6ccccc6C5)c4F)n3)C2)C1 [Example 50, N-(3-(2-(bicyclo [1.1.1]pentan-1-yl)-5-(2-((2,2-dioxido-2-thiaspiro[3.3]heptan-6-yl)amino)-pyrimidin-4-yl)thiazol-4-yl)-2-fluorophenyl)-1,3,4,5-tetrahydro-2H-benzo[c]azepine-2-sulfonamide]"
7,30.2 nM,"COc1cccc2c1CN(S(=O)(=O)Nc1cccc(-c3nc(N4C5CCC4CN(C)C5)sc3-c3ccnc(NC4CC5(C4)CS(=O)(=O)C5)n3)c1F)C2 [Example 31, N-(3-(5-(2-((2,2-dioxido-2-thiaspiro-[3.3]-heptan-6-yl)amino)pyrimidin-4-yl)-2-(3-methyl-3,8-diazabicyclo [3.2.1]-octan-8-yl)-thiazol-4-yl)-2-fluoro-phenyl)-4-methoxy-isoindoline-2-sulfonamide]"
8,5940 nM,"CC(C)(C)c1nc(-c2cccc(NS(=O)(=O)N3CCn4c(nnc4C(F)(F)F)C3)c2F)c(-c2ccnc(NC3CCN(S(C)(=O)=O)CC3)n2)s1 [Example 94, N-(3-(2-(tert-butyl)-5-(2-((1-(methylsulfonyl)-piperidin-4-yl)amino)-pyrimidin-4-yl)thiazol-4-yl)-2-fluoro-phenyl)-3-(trifluoromethyl)-5,6-dihydro-[1,2,4]triazolo [4,3-a]pyrazine-7(8H)-sulfonamide]"
9,81 nM,"O=S1(=O)C[C@@H]2[C@H](C1)[C@H]2Nc1nccc(-c2sc(C34CC(C3)C4)nc2-c2cccc(NS(=O)(=O)N3Cc4ccc(CO)cc4C3)c2F)n1 [Example 11, N-(3-(2-(bicyclo [1.1.1]pentan-1-yl)-5-(2-(((1R,5S,6r)-3,3-dioxido-3-thiabicyclo-[3.1.0]hexan-6-yl)amino)pyrimidin-4-yl)thiazol-4-yl)-2-fluorophenyl)-5-(hydroxymethyl) isoindoline-2-sulfonamide]"
10,765 nM,"COCCN1CCN(c2ccc(Nc3nccc(-c4sc(C(C)(C)C)nc4-c4cccc(NS(=O)(=O)N5CCc6ccc(C#N)cc65)c4F)n3)cc2)CC1 [Example 233, N-(3-(2-(tert-butyl)-5-(2-((4-(4-(2-methoxy-ethyl)piperazin-1-yl)phenyl)-amino)-pyrimidin-4-yl)thiazol-4-yl)-2-fluorophenyl)-6-cyanoindoline-1-sulfonamide]"
11,130 nM,"CS(=O)(=O)[C@H]1CC[C@H](Nc2nccc(-c3sc(N4C5CCC4CC(F)(F)C5)nc3-c3cccc(NS(=O)(=O)N4CCc5ccc(C(F)(F)F)cc54)c3F)n2)CC1 [Example 298, N-(3-(2-(3,3-difluoro-8-azabicyclo-[3.2.1]octan-8-yl)-5-(2-(((1r,4r)-4-(methylsulfonyl)cyclohexyl)amino)-pyrimidin-4-yl)thiazol-4-yl)-2-fluoro-phenyl)-6-(trifluoromethyl)-indoline-1-sulfonamide]"
12,286 nM,"CN1CCN(S(=O)(=O)Nc2cccc(-c3nc(C(C)(C)C)sc3-c3ccnc(NC4CCN(S(C)(=O)=O)CC4)n3)c2F)Cc2ccccc21 [Example 137, N-(3-(2-(tert-butyl)-5-(2-((1-(methylsulfonyl)-piperidin-4-yl)amino)-pyrimidin-4-yl)thiazol-4-yl)-2-fluoro-phenyl)-1-methyl-1,2,3,5-tetrahydro-4H-benzo[e][1,4] diazepine-4-sulfonamide]"
13,1300 nM,"CC(C)(C)c1nc(-c2cccc(NS(=O)(=O)N3CCc4ccc(-c5ccccc5)cc43)c2F)c(-c2ccnc(NC3CCN(S(C)(=O)=O)CC3)n2)s1 [Example 218, N-(3-(2-(tert-butyl)-5-(2-((1-(methylsulfonyl)-piperidin-4-yl)amino)-pyrimidin-4-yl)thiazol-4-yl)-2-fluoro-phenyl)-6-phenylindoline-1-sulfonamide]"
14,5270 nM,"O=S1(=O)CC2(CC(Nc3nccc(-c4sc(C56CC(C5)C6)nc4-c4cccc(NS(=O)(=O)N5C6CCC5CC6)c4F)n3)C2)C1 [Example 265, N-(3-(2-(bicyclo[1.1. 1]pentan-1-yl)-5-(2-((2,2-dioxido-2-thiaspiro[3.3]heptan-6-yl)amino)-pyrimidin-4-yl)thiazol-4-yl)-2-fluorophenyl)-7-azabicyclo[2.2.1]-heptane-7-sulfonamide]"
15,317 nM,"CC(C)(C)c1nc(-c2cccc(NS(=O)(=O)N3Cc4ccc(C(F)F)cc4C3)c2F)c(-c2ccnc(NC3CCN(S(C)(=O)=O)CC3)n2)s1 [Example 254, N-(3-(2-(tert-butyl)-5-(2-((1+ (methylsulfonyl)-piperidin-4-yl)amino)-pyrimidin-4-yl)thiazol-4-yl)-2-fluoro-phenyl)-5-(difluoromethyl)-isoindoline-2-sulfonamide]"
16,325 nM,"COc1cc2c(cc1OC)CN(S(=O)(=O)Nc1cccc(-c3nc(C(C)(C)C)sc3-c3ccnc(NC4CCN(S(C)(=O)=O)CC4)n3)c1F)C2 [Example 87, N-(3-(2-(tert-butyl)-5-(2-((1-(methylsulfonyl)-piperidin-4-yl)amino)-pyrimidin-4-yl)thiazol-4-yl)-2-fluorophenyl)-5,6-dimethoxy-isoindoline-2-sulfonamide]"
17,138 nM,"O=S1(=O)CC2(CC(Nc3nccc(-c4sc(N5C6CCC5COC6)nc4-c4cccc(NS(=O)(=O)N5Cc6ccccc6C5)c4F)n3)C2)C1 [Example 4, N-(3-(2-(3-oxa-8-azabicyclo[3.2.1]octan-8-yl)-5-(2-((2,2-dioxido-2-thiaspiro-[3.3]heptan-6-yl)amino)pyrimidin-4-yl)thiazol-4-yl)-2-fluorophenyl)-isoindoline-2-sulfonamide]"
18,382 nM,"CS(=O)(=O)[C@H]1CC[C@H](Nc2nccc(-c3sc(C45CC(C(F)(F)F)(C4)C5)nc3-c3cccc(NS(=O)(=O)N4CCc5ccc(Cl)cc54)c3F)n2)CC1 [Example 54, 6-chloro-N-(2-fluoro-3-(5-(2-(((1r,4r)-4-(methylsulfonyl)cyclohexyl)amino)pyrimidin-4-yl)-2-(3-(trifluoromethyl)bicyclo-[1.1.1]-pentan-1-yl)thiazol-4-yl)phenyl)-indoline-1-sulfonamide]"
19,270 nM,"CS(=O)(=O)[C@H]1CC[C@H](Nc2nccc(-c3sc(C45CC(C(F)(F)F)(C4)C5)nc3-c3cccc(NS(=O)(=O)N4CCc5ccc(C#N)cc54)c3F)n2)CC1 [Example 56, 6-cyano-N-(2-fluoro-3-(5-(2-(((1r,4r)-4-(methylsulfonyl)cyclohexyl)amino)-pyrimidin-4-yl)-2-(3-(trifluoromethyl)-bicyclo[1.1.1]-pentan-1-yl)thiazol-4-yl)phenyl)indoline-1-sulfonamide]"

# Source: patent publication US20260274833A1 (NiKang Therapeutics, Inc., priority 2022, published 2026)
